# Like-named read-outs stand apart in the source and are kept apart here.
# What was measured:
# TbINO1 = target: T1, TbINO1 (Trypanosoma brucei brucei, UniProt Q5QQ46); assay: biochemical; assay type: binding; conditions: for Tb Ino1 Tm Shift [˚C]: Supplementary Table 1, compound 1mM, mean ± SD from Boltzman curve fitting
# T1 sequence (Q5QQ46 1-528): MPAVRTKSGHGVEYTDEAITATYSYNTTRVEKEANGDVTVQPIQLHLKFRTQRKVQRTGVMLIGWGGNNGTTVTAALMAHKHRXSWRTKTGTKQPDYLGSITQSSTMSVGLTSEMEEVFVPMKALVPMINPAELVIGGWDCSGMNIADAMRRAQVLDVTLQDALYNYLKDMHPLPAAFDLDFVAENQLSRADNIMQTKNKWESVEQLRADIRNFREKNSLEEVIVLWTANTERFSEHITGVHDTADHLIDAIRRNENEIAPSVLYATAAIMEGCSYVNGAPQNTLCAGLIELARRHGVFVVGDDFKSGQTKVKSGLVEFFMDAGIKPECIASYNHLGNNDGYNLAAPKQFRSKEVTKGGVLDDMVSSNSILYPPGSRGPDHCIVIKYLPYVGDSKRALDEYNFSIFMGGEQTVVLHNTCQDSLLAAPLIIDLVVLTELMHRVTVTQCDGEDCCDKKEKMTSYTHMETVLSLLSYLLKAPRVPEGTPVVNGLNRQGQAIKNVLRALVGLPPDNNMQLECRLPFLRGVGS
# HeLa cells = assay: cells; conditions: for viability at 500 µM: Homo sapiens, HeLa, 65 h; for HeLa Cells Alamar Blue: Supplementary Table 1
# Procedure, shortened: (§1)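 Alamar Blue read-out after a 5 h dye incubation that followed ~65 h compound exposure. Cells: HeLa or A549, 2 × 10^4/well, DMEM + 10% FCS + 2 mM L-Glutamine.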
# A549 cells = assay: Cytotoxicity against A549 cells, Alamar Blue; assay type: cell-based; conditions: Supplementary Table 1, compound 0.5 mM, percentage of controls (n=1); for viability at 500 µM: Homo sapiens, A549, 65 h
# Procedure, shortened: as §1
# [1] = read-out: Tb Ino1 Tm Shift [˚C]
# [2] = read-out: HeLa Cells Alamar Blue
# [3] = compound 0.5 mM, percentage of controls, mean ± SD (n=3) or SE (n=2)
Compound,ΔTm at 1000 µM (TbINO1; [1]),viability at 500 µM (HeLa cells; [2]),viability at 500 µM (A549 cells),also measured
"CNCc1ccc(-c2ccccn2)cc1 [compound 607, N‐methyl‐N‐(4‐pyridin‐2‐ylbenzyl)amine]",0.02 ± 0.06 °C,57.7 ± 17.1%,71.5%,
"CC1(C(=O)O)CC2C=CC1C2 (stereo not shown) [compound 205, 2‐methylbicyclo[2.2.1]hept‐5‐ene‐2‐carboxylic acid]",,,,Tb Ino1 Tm Shift [˚C] (TbINO1): 0.08 ± 0.08 °C; HeLa Cells Alamar Blue (HeLa cells; [3]): 92.1 ± 17.2 percentage of controls; A549 Cells Alamar Blue (A549 cells): 53.8 percentage of controls
"CC(C)(N)CN1CCCC1 [compound 142, 2‐methyl‐1‐(1‐pyrrolidinyl)‐2‐propanamine]",,,,Tb Ino1 Tm Shift [˚C] (TbINO1): 0.13 ± 0.07 °C; HeLa Cells Alamar Blue (HeLa cells; [3]): 89.9 ± 8.9 percentage of controls; A549 Cells Alamar Blue (A549 cells): 96.3 percentage of controls
"Cc1occc1C(=O)O [compound 75, 2-methyl-3-furoic acid]",,63.3 ± 5.9%,110%,ΔTm at 1000 µM (TbINO1; read-out: TbIno1 Tm shift [°C]): 3.89 ± 0.07 °C; viability at 500 µM (HeLa cells; read-out: HeLa Cells Alamar Blue (% survival)): 63.3 ± 5.9%
"Oc1ccc(F)cc1 [compound 29, 4‐fluorophenol]",0.23 ± 0.08 °C,,88.4%,"viability at 500 µM (HeLa cells; read-out: HeLa Cells Alamar Blue, Supplementary Table 1, compound 0.5 mM, percentage of controls, mean ± SD (n=3) or SE (n=2)): 96.2 ± 7.7%"

# Continued, in another order:
ΔTm at 1000 µM (TbINO1; [1]),Compound,viability at 500 µM (HeLa cells; [2]),viability at 500 µM (A549 cells),also measured
0.78 ± 0.05 °C,"Nc1ccc2occc2c1 [compound 100, 1‐benzofuran‐5‐amine]",80.2 ± 12.5%,110%,
0.43 ± 0.07 °C,"N#Cc1cc(Cl)ccc1O [compound 218, 5‐chloro‐2‐hydroxybenzonitrile]",92 ± 11.8%,67.7%,
0.13 ± 0.06 °C,"O=C(O)Cc1cc(F)cc(F)c1 [compound 359, 2‐(3,5‐difluorophenyl)acetic acid]",108 ± 13.6%,128%,
1.06 ± 0.07 °C,"N#Cc1ccnc(N2CCSCC2)c1 [compound 668, 2‐thiomorpholinoisonicotinonitrile]",80.3 ± 19.6%,98.5%,
0.13 ± 0.07 °C,"Cc1ccc(O)c(C)n1 [compound 64, 2,6‐dimethylpyridin‐3‐ol]",103 ± 13.2%,80.6%,

# Source: article PMC3199943, “Screening the MayBridge Rule of 3 Fragment Library for Compounds That Interact with the Trypanosoma brucei myo-Inositol-3-Phosphate Synthase and/or Show Trypanocidal Activity” (Molecular Biology International, 2011)
